Tests used:
[1] = system: PDGF-induced gliomas that expressed G12D mutant KRAS; assay: Survival of mice with PDGF-induced gliomas expressing G12D mutant KRAS treated with Plinabulin; assay type: in vivo; conditions: Plinabulin 7.5 mg/kg i.p. twice per week for 10 weeks; control: Plinabulin diluent only; p=0.001
Excerpt: Mice with PDGF-induced gliomas using RCAS/tv-a were generated. The mice were transgenic for expression of the RCAS receptor (tv-a) from the nestin promoter and having a background of ink4a/arf−/− and lox-stop-lox luciferase, were infected with RCAS-PDGF, or the combination of RCAS-PDGF and RCAS-KRAS that expressed G12D mutant KRAS. The resultant tumors occurred within the first 4-5 weeks in this background for PDGF alone, and about a week shorter for the tumors arising from the combination of PDGF and RCAS. The tumors had the histological characteristics of GBM and were identified by symptoms of lethargy and poor grooming, MRI scans using a T2 weighted sequence, or bioluminescence imaging with an IVIS system. For radiation therapy, mice were treated with 10Gy per day cranially for a single dose.
Plinabulin was tested on mice with PDGF-induced gliomas that expressed G12D mutant KRAS. 4-6 week old nestin-tv-a/ink4a-arf−/− mice were anesthetized with Isoflurane and injected with Df-1 cells transfected RCAS-PDGF-B-HA, RCAS-KRAS. Mice were injected with one microliter of a 1:1 mixture of 2×10^5 RCAS-PDGF-B-HA/RCAS-KRAS using a stereotactic frame via a 26-gauge needle attached to a Hamilton syringe. […] The mice were monitored for lethargy, hunched posture, appetite loss, outward signs of tumor growth, agitation, weight-loss and overall failure to thrive. […]

[2] = system: PDGF-induced gliomas that expressed G12D mutant KRAS; assay: Survival of mice with PDGF-induced gliomas expressing G12D mutant KRAS treated with Plinabulin plus TMZ plus radiation; assay type: in vivo; conditions: Plinabulin 7.5 mg/kg i.p. twice a week for 10 weeks plus TMZ plus radiation 10gy x1; p=0.0149
Protocol: Mice with PDGF-induced gliomas that expressed G12D mutant KRAS were prepared using the procedures according to Example 1 and used in this experiment. 4-6 week old nestin-tv-a/ink4a-arf−/− mice were anesthetized with Isoflurane and injected with Df-1 cells transfected RCAS-PDGF-B-HA, RCAS-KRAS. Mice were injected with one microliter of a 1:1 mixture of 2×10^5 RCAS-PDGF-B-HA/RCAS-KRAS using a stereotactic frame via a 26-gauge needle attached to a Hamilton syringe. Cells were injected into the right frontal cortex, coordinates bregma 1.75 mm, Lat −0.5 mm, and a depth of 2 mm.
The mice were entered into two study groups. One group was treated with the combination of temozolomide (TMZ), Radiation and Plinabulin: radiation was given at 10gy×1, TMZ and Plinabulin 7.5 mg/kg in Plinabulin diluent was administered intraperitoneally twice a week on Monday and Thursday for 10 weeks. The other group, the control group, was treated with the combination of TMZ and radiation: radiation was given at 10gy×1, TMZ was administered intraperitoneally twice a week on Monday and Thursday for 10 weeks. the mice were monitored for lethargy, hunched posture, appetite loss, outward signs of tumor growth, agitation, weight-loss and overall failure to thrive. […]

CC(C)(C)c1[nH]cnc1/C=c1\[nH]c(=O)/c(=C/c2ccccc2)[nH]c1=O [Plinabulin, (3Z,6Z)-3-Benzylidene-6-{[5-(2-methyl-2-propanyl)-1H-imidazol-4-yl]methylene}-2,5-piperazinedione] was tested, and the “survival rate vs control group (FIG. 3)” value [1] was “significantly better survival rate” and the “survival rate vs control group that received TMZ plus radiation (FIG. 4)” value [2] was “significantly better survival rate”.
